Target: human σ2 receptor (TMEM97) (Homo sapiens, UniProt Q5BJF2)
Test: biochemical
Format: Expi293 membranes
Conditions: read-out: % of control remaining

Sequence of human σ2 receptor (TMEM97) (Q5BJF2 whole entry): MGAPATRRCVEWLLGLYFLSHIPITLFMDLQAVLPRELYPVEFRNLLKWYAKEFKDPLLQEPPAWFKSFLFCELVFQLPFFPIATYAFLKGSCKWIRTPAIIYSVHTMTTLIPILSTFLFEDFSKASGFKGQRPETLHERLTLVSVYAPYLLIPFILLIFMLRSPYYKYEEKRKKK

SMILES | remaining activity at 1 µM
Fc1cccc(Cl)c1CNC1CCC2(CCCO2)CC1 (stereo not drawn) [ZINC000584028046] | 18.4%
C[C@H](CN(C)CC(=O)NCc1cccc(Cl)c1)c1ccccc1 [ZINC000589606863] | 68.9%
CCCN1CC[C@H](NS(=O)(=O)c2ccc(C(=O)OC)cc2F)C1 [ZINC000595353335] | 97.7%
N#Cc1sccc1N1CCN(CCCCCn2cccn2)CC1 [ZINC000595632104] | 45.7%
CC(C)Cc1ccc(C(=O)Nc2ccc(OCCN3CCN(C)CC3)cc2)cc1 [ZINC000608224751] | 75.6%
COC(=O)[C@H](NCC(C)(C)N1CCc2ccccc2C1)c1ccccc1 [ZINC000609803478] | 49.8%
CN(C)S(=O)(=O)N(C)CC(=O)N[C@@H]1COc2cc(F)ccc2C1 [ZINC000618647685] | 91.7%
CCCN1CCC[C@H]1C(=O)NCc1cnccc1C(F)(F)F [ZINC000621202771] | 61.4%
CC(C)(CO)N1CCN(c2nc3c(Br)cccc3s2)CC1 [ZINC000621267824] | 33.4%
C[C@@H]1CCCC[C@H]1OCCNC(=O)NC[C@H]1CCCCN(C)C1 [ZINC000623468108] | 84.9%
CC(C)CC[C@@H](CO)N[C@H](C)c1nc2c(s1)CCCC2 [ZINC000624110289] | 49.3%
COCC(COC)N1CCN(S(=O)(=O)c2cnc(C)n2C)CC1 [ZINC000625246444] | 105%
COc1ccccc1C[C@@](C)(CO)NCc1ccc2c(c1)ncn2C [ZINC000631236280] | 92%
O=C(Nc1cscc1Cl)C(=O)N[C@@H]1CCN(CC2CC2)C1 [ZINC000635049325] | 53.2%
O=C(CN1CCC[C@@H]1[C@@H]1CCC[C@H]1O)N1CCOC[C@H]1C1CC1 [ZINC000649929688] | 96.5%
O=C(Nc1ccc2ncnn2c1)[C@]1(O)CCN(Cc2ccccc2)C1 [ZINC000655168559] | 97.6%
OC[C@]1(CNC2=NCCCN2)CCc2ccccc21 [ZINC000656508398] | 55.9%
C[C@@H](Cc1ccc2c(c1)CCCC2)N[C@H]1CCN(C2CCOCC2)C1=O [ZINC000657922756] | 1.7%
C[C@H](Cn1ncc2ccccc2c1=O)N[C@@H](C)Cc1ccc2c(c1)CCCC2 [ZINC000657934399] | 13.3%
C[C@H](Cn1cncn1)N[C@@H]1CCN(c2ccccc2C(F)(F)F)C1 [ZINC000657977970] | 83.1%
CCOc1cc2c(cc1NC(=O)C[C@@H]1NCc3ccccc31)O[C@@H](C)C2 [ZINC000659267272] | 101%
CNC[C@H](C)NC(=O)C(=O)NCc1ccc(N2CCO[C@@H](C)C2)nc1 [ZINC000659691253] | 82.1%
O=C(CN1CC2CC1(c1ccccc1)C2)NC[C@@H]1CCCO1 [ZINC000662335416] | 122%
CN(CC(=O)Nc1c(Cl)cccc1Cl)C[C@@H]1CC1(C)C [ZINC000662345330] | 42.3%
COc1cc(NC(=O)CC2(N)CC2)cc(OC)c1Br [ZINC000662800454] | 106%
O=C(N[C@H]1CCOC2(CCC2)C1)N1CCC(N2CC[C@@H](O)C2)CC1 [ZINC000664479370] | 103%
CN(C)Cc1ccc(-c2cscc2CCO)cc1F [ZINC000665143541] | 108%

SMILES | remaining activity at 1 µM
O=C(Nc1cnn(CC2CC2)c1)C(=O)N1CCC[C@H]([C@@H]2CCNC2)C1 [ZINC000667676804] | 94.4%
OC[C@H](N[C@H]1Cc2[nH]c3ccccc3c2C1)C1CCCCC1 [ZINC000669616349] | 56.6%
C[C@@H](NC(=O)C(=O)NCCCN1CCC[C@H](C(N)=O)C1)C1CCC1 [ZINC000671981913] | 106%
O=C(NCCCC1CC1)C(=O)NC1CCN([C@H]2CCC[C@@H]2O)CC1 [ZINC000673584800] | 110%
Clc1ccccc1Cn1cc(CN2CCC[C@@H]2c2ccc[nH]2)cn1 [ZINC000676461131] | 63.8%
COCCOCc1cccc(NC(=O)NCC2(C)CCN(C)CC2)c1 [ZINC000679555790] | 103%
Fc1cc(Br)cnc1N1CCN(CCc2cccs2)CC1 [ZINC000681377109] | 114%
CC[C@@]1(NCC(=O)Nc2ccc(C)cc2Br)CCOC1 [ZINC000683045155] | 108%
Clc1ccccc1Cn1cc(CNc2nc3ccccc3[nH]2)cn1 [ZINC000683721842] | 99.8%
CCN(CC)c1ncc(CN2CC(C(C)C)C2)s1 [ZINC000684407814] | 70.6%
CC(C)C1CN(C[C@@H](O)COC(c2ccccc2)c2ccccc2)C1 [ZINC000684607185] | 17.3%
CCN1CCN(CCNC(=S)N[C@H](C)c2cccs2)CC1 [ZINC000726467110] | 79.5%
O[C@@H](CN1CC[C@@H](CSc2ccccc2)C1)c1c(F)cccc1F [ZINC000743860012] | 23.7%
CN(C(=O)CCn1cnc2c1c(=O)n(C)c(=O)n2C)c1cn[nH]c1 [ZINC000748395040] | 108%
Cc1nn(Cc2ccc(F)cc2)c(Cl)c1CNC[C@@]1(O)CCN(C)C1 [ZINC000762555244] | 84.1%
Cc1ccc2c(c1)CC[C@H]2N[C@@H](CO)Cc1ccccc1 [ZINC000766031584] | 63.2%
C[C@H](CCN1C(=O)c2ccccc2C1=O)NC[C@@H](O)c1c(F)cccc1F [ZINC000769519341] | 91.7%
O=C(NC1CCCCC1)C(=O)NC1CCN(C[C@H]2CCCO2)CC1 [ZINC000774469834] | 83.3%
O=[N+]([O-])c1cccc([C@H](O)CN2CC(Cc3cccc(C(F)(F)F)c3)C2)c1 [ZINC000792998860] | 3.8%
O[C@H](CN[C@@H]1CCc2ccccc2OC1)COc1c(Cl)cccc1Cl [ZINC000801571276] | 37.6%
O=C(NC[C@@H]1CN2CCC[C@@H]2CO1)C(=O)N[C@@H]1CC[C@H]2CCC[C@@H]2C1 [ZINC000804054066] | 90%
CN1CCN(CCNC(=O)C(=O)NC[C@H]2CCC=CO2)CC1(C)C [ZINC000805503179] | 105%
CC[C@@H](CN1CCCC1)NC(=O)C(=O)NC1COC(C)(C)OC1 [ZINC000806327364] | 106%
C[C@H](NC(=O)c1ccc2[nH]c(=O)c(=O)[nH]c2c1)[C@H](O)c1ccccc1 [ZINC000813849560] | 108%
CC(C)(C)OC(=O)N1CCC[C@@](C)(CNC[C@@H](O)c2c(F)cccc2F)C1 [ZINC000819225653] | 17.6%
C[C@H]1[C@H](N(C)C)CCN1c1snc(Cl)c1C#N [ZINC000820594289] | 104%

The remaining lines, values ahead:

remaining activity at 1 µM | SMILES
72.4% | O[C@@H]1CC[C@@H]2CN(Cc3cccc4c[nH]nc34)C[C@@H]21 [ZINC000582751592]
22.7% | CC1(C)Cc2cc(C(=O)N3CCC[C@@H](N4CCCC4)CC3)ccc2O1 [ZINC000584233558]
98.2% | C[C@@H](C(=O)NC[C@H](C)N1CCCC1)c1c(Cl)cccc1Cl [ZINC000586751050]
134% | O=C(Cn1cc([N+](=O)[O-])ccc1=O)N1CC[C@H](N2CC[C@@H](O)C2)C1 [ZINC000588863575]
153% | CC(C)Cc1ccc(C(=O)N2CCN([C@@H]3CCC[C@@H]3O)CC2)cc1 [ZINC000592403811]
96.1% | Cc1cc([N+](=O)[O-])ccc1NC(=O)CN1CCC[C@@H]([C@@H]2CCCCO2)C1 [ZINC000595790972]
65.5% | CCc1c(C(=O)N[C@@H](C)C2CCN(C)CC2)cnn1-c1ccccc1 [ZINC000603324806]
19.1% | COC(=O)[C@H](c1cccc(Cl)c1Cl)N1CCC[C@H](N2CCCC2)C1 [ZINC000611661177]
126% | CCN1CC[C@H](N(CC)C(=O)c2cccc(C(F)(F)F)n2)C1 [ZINC000617924178]
114% | O=C([C@@H]1CCCN1c1ncccn1)N1CC[C@@H](N2CC[C@H](O)C2)C1 [ZINC000627254962]
35.5% | Clc1ccc(O[C@H]2CCN(C3CCCC3)C2)cc1 [ZINC000645238909]
106% | C[C@@H](Cc1c(Cl)cccc1Cl)NC(=O)c1cn(C[C@@H]2CCCN2)nn1 [ZINC000646273308]
71.5% | Cc1cc(F)c(CN[C@@H]2CCN(c3ccccc3C(N)=O)C2)c(Cl)c1 [ZINC000656499190]
42.3% | COc1ccc([C@@H](C)N[C@H](CO)C2CCC2)cc1Br [ZINC000658086473]
58.4% | Cc1ccccc1-n1cc(CN2CCC[C@@H]([C@H]3CCCCO3)C2)nn1 [ZINC000668631550]
69.7% | C[C@H]1[C@H](N2CCCC2)CCN1Cc1cn2cc(Br)ccc2n1 [ZINC000672564445]
55.7% | c1ccc(-n2cncn2)c(CN2CCC[C@H](N3CCCC3)CC2)c1 [ZINC000678272880]
114% | CN1CC[C@H]2CCN(C(=O)C(=O)Nc3cnc4c(c3)COCC4)[C@@H]2C1 [ZINC000679371269]
51.3% | Brc1ccccc1-n1cc(CN2CC[C@@H]3CCC[C@@H]32)nn1 [ZINC000685844120]
118% | O[C@@H](CN1CCN(c2ccc(-c3nn[nH]n3)cc2F)CC1)C1CC1 [ZINC000738383044]
39% | COc1ccc([C@H]2CCN(C[C@@H](O)c3ccc(F)cc3Cl)C2)cc1 [ZINC000775588849]
108% | O=C1NCCC[C@@H]1N1CC[C@@](O)(c2ccc(F)cc2)C1 [ZINC000777733869]
89.7% | Cc1ccc(C2=NO[C@@H](CNC(=O)N3CC[C@H](N4CCCC4)C3)C2)cc1C [ZINC000802379169]
133% | COc1ccc(C(=O)N2CC[C@H](N3CCCC3)[C@@H]2C)nc1Cl [ZINC000805335094]
99.4% | Cc1ccc(N2CCN(C(=O)C(=O)N[C@@H]3CN(C4CC4)C[C@@H]3C)CC2)cc1 [ZINC000809405032]

Reference: publication doi:10.1101/2021.04.29.441652v1 (biorxiv, 2021)
